How the values were obtained:
[1] = target: T1, Adrenergic receptor alpha-1 (Homo sapiens, UniProt P35348+P25100+P35368); assay: Binding affinity for human brain Alpha-1 adrenergic receptor
T1 sequence (P35348 whole entry): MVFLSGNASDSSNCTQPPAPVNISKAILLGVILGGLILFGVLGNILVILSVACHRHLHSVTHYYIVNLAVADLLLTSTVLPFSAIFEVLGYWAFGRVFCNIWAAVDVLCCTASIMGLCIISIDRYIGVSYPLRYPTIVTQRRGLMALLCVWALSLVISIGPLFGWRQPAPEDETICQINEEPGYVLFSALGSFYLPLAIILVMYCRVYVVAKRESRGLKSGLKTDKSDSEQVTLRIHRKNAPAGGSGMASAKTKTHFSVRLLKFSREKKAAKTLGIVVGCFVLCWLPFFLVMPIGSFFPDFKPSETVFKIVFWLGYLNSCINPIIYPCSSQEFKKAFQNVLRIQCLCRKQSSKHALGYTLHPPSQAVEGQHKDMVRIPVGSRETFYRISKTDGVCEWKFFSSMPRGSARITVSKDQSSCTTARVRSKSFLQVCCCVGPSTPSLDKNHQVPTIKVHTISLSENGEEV
T1 sequence (P25100 whole entry): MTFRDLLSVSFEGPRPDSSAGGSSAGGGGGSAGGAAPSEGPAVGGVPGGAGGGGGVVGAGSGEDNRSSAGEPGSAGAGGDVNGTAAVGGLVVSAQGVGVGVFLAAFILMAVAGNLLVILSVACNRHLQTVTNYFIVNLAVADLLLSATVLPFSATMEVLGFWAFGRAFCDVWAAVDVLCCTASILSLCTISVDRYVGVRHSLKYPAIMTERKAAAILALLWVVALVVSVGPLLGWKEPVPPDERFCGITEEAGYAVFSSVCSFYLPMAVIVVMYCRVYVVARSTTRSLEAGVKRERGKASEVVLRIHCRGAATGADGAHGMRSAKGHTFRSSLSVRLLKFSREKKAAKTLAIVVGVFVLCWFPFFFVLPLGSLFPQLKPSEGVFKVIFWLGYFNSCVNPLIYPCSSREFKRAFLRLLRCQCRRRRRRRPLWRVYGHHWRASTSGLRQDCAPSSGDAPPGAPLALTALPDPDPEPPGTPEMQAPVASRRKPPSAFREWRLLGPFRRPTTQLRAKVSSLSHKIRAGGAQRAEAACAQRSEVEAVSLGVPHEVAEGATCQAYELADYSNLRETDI
T1 sequence (P35368 whole entry): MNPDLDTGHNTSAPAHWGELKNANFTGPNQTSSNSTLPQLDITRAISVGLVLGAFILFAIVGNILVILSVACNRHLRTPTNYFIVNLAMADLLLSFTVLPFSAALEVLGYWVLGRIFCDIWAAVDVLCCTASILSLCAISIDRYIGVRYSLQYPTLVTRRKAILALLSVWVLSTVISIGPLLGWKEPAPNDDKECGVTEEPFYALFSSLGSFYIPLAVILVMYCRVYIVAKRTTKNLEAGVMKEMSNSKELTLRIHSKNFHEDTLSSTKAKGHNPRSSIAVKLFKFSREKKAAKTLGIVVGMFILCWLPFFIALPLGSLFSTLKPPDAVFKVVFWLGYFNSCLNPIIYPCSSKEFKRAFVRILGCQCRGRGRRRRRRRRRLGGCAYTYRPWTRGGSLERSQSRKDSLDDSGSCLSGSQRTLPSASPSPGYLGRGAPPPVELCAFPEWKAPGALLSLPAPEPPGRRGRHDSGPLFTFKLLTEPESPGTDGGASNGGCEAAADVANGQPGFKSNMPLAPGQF

[2] = target: T2, Alpha-2A adrenergic receptor (Homo sapiens, UniProt P08913); assay: Binding affinity for human Alpha-2A adrenergic receptor
T2 sequence (P08913 whole entry): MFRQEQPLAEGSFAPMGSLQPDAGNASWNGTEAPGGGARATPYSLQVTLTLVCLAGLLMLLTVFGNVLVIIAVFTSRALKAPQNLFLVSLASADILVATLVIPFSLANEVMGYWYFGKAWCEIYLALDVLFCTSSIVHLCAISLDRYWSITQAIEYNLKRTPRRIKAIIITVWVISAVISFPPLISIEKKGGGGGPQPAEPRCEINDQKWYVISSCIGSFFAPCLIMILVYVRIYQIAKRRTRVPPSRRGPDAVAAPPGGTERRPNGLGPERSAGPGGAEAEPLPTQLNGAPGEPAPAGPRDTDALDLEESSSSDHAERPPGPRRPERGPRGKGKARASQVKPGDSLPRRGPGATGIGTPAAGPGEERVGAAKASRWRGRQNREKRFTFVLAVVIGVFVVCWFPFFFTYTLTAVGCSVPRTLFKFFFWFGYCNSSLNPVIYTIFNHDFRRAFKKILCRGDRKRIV

[3] = target: T3, Alpha-2C adrenergic receptor (Homo sapiens, UniProt P18825); assay: Binding affinity for human Alpha-2C adrenergic receptor
T3 sequence (P18825 whole entry): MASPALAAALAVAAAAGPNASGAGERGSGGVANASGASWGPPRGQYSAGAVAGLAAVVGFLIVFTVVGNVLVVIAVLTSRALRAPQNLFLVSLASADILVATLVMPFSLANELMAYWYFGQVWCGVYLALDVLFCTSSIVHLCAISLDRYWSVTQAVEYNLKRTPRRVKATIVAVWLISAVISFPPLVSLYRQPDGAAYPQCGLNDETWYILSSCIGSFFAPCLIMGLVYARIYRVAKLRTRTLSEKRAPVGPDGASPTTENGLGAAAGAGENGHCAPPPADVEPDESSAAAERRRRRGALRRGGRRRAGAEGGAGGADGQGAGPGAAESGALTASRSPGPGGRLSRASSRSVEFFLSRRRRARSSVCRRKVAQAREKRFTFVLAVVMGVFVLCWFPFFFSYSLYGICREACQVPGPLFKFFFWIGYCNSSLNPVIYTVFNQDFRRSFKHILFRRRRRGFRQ

[4] = target: T4, Alpha-2B adrenergic receptor (Rattus norvegicus, UniProt P19328); assay: Binding affinity for rat Alpha-2B adrenergic receptor
T4 sequence (P19328 whole entry): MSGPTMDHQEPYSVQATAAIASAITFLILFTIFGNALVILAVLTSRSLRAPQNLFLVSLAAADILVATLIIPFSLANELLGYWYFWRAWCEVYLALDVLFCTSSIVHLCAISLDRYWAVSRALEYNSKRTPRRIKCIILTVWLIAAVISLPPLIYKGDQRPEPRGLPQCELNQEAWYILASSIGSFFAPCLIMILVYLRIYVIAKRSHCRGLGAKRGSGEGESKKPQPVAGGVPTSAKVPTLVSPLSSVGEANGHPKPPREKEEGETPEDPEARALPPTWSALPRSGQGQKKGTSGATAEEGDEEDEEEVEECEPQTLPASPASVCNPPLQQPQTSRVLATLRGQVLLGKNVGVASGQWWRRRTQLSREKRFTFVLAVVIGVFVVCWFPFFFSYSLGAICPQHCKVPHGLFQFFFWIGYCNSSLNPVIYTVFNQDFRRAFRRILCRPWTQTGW

| SMILES | Ki [1] | Ki [2] | Ki [3] | Ki [4] |
| --- | --- | --- | --- | --- |
| CC(C)C1C2CCC(C2)C1N (stereo not given) | > 100 µM | > 20 µM | > 20 µM | > 20 µM |
| COc1nc(C)nc(Cl)c1NC1=NCCN1 [MOXONIDINE] | > 30 µM | – | – | – |
